# Where two headings read alike, the source gives them in different places.
# Conditions: 13-membered ring
molecule,measurement,setting,value
CCOC(=O)C[C@@H]1NC(=O)C(n2cc(CCN3CC(F)C3)c(C(F)(F)F)cc2=O)c2cc(ccc2C)Oc2cccc(C)c2-c2cc(C)c(F)c1c2 (stereo partly drawn),"ring closure, isolated yield","from CCOC(=O)C[C@H](NC(=O)C(c1cc(Br)ccc1C)n1cc(CCN2CC(F)C2)c(C(F)(F)F)cc1=O)c1cc(-c2c(C)cccc2O)cc(C)c1F, ether bond, CuI/K2CO3/(1R,2R)-N1,N2-dimethylcyclohexane-1,2-diamine, 1,4-dioxane, 100.0 °C",88.9%
CCOC(=O)C[C@@H]1NC(=O)C(n2cc(CCN3CC(F)C3)c(C(F)(F)F)cc2=O)c2cc(ccc2F)Oc2cc(C)cc(C)c2-c2cc(C)c(F)c1c2 (stereo partly drawn),"ring closure, isolated yield","from CCOC(=O)C[C@H](NC(=O)C(c1cc(Br)ccc1F)n1cc(CCN2CC(F)C2)c(C(F)(F)F)cc1=O)c1cc(-c2c(C)cc(C)cc2O)cc(C)c1F, ether bond, CuI/K2CO3/(1R,2R)-N1,N2-dimethylcyclohexane-1,2-diamine, dioxane, 66.0 mM, 100.0 °C, 16.0 h",49.3%
CCOC(=O)C[C@@H]1NC(=O)C(n2cc(CCN3CC(F)C3)c(C(F)(F)F)cc2=O)c2cc(ccc2F)Oc2cccc(C)c2-c2cc(C(F)F)c(F)c1c2 (stereo in doubt),"ring closure, isolated yield","from CCOC(=O)C[C@H](NC(=O)C(c1cc(Br)ccc1F)n1cc(CCN2CC(F)C2)c(C(F)(F)F)cc1=O)c1cc(-c2c(C)cccc2O)cc(C(F)F)c1F, ether bond, CuI/(1R,2R)-N1,N2-dimethylcyclohexane-1,2-diamine/K2CO3, 1,4-dioxane, 17.3 mM, 100.0 °C, 16.0 h",50.2%
CCOC(=O)C[C@@H]1NC(=O)C(n2cc(CCN3CC(F)C3)c(C(F)(F)F)cc2=O)c2cc(cc(C(F)(F)F)c2)Oc2cccc(C)c2-c2cc(C)c(F)c1c2 (stereo in doubt),"ring closure, isolated yield","from CCOC(=O)C[C@H](NC(=O)C(c1cc(Br)cc(C(F)(F)F)c1)n1cc(CCN2CC(F)C2)c(C(F)(F)F)cc1=O)c1cc(-c2c(C)cccc2O)cc(C)c1F, ether bond, CuI/K2CO3/(1R,2R)-N1,N2-dimethylcyclohexane-1,2-diamine, dioxane, 90.0 mM, 100.0 °C, 2.0 h",69%
CCOC(=O)C[C@H](NC(=O)C(c1cc(Cl)cc(Br)c1)n1cc(CCN2CC(F)C2)c(C(F)(F)F)cc1=O)c1cc(-c2c(O)ccc(F)c2C)cc(C)c1F (stereo partly drawn),"ring closure, isolated yield","the molecule shown is the open-chain precursor, ether bond, CuI/(1R,2R)-N1,N2-dimethylcyclohexane-1,2-diamine/K2CO3, dioxane, 22.0 mM, 100.0 °C",98.3%
CCOC(=O)C[C@H](NC(=O)C(c1cccc(Br)c1)n1cc(Cl)c(C(F)(F)F)cc1=O)c1cc(-c2c(C)cccc2O)cc(C(F)(F)F)c1F (stereo partly drawn),"ring closure, isolated yield","the molecule shown is the open-chain precursor, ether bond, CuI/(1R,2R)-N1,N2-dimethylcyclohexane-1,2-diamine/K2CO3, 1,4-dioxane, 23.3 mM, 100.0 °C",71%
CCOC(=O)C[C@@H]1NC(=O)C(n2cc(CCOC)c(C(F)(F)F)cc2=O)c2cc(ccc2F)Oc2cccc(C)c2-c2cc(C)c(F)c1c2 (stereo partly drawn),"ring closure, isolated yield","from CCOC(=O)C[C@H](NC(=O)C(c1cc(Br)ccc1F)n1cc(CCOC)c(C(F)(F)F)cc1=O)c1cc(-c2c(C)cccc2O)cc(C)c1F, ether bond, CuI/K2CO3/(1R,2S)-N1,N2-dimethylcyclohexane-1,2-diamine, dioxane, 65.0 mM, 100.0 °C",27.9%
CCOC(=O)C[C@@H]1NC(=O)C(n2ccc(C(F)(F)F)cc2=O)c2cc(ccc2F)Oc2cc(OC)cc(C)c2-c2cc(C)c(F)c1c2 (stereo partly drawn),"ring closure, isolated yield","from CCOC(=O)C[C@H](NC(=O)C(c1cc(Br)ccc1F)n1ccc(C(F)(F)F)cc1=O)c1cc(-c2c(C)cc(OC)cc2O)cc(C)c1F, ether bond, CuI/K2CO3/(1R,2R)-N1,N2-dimethylcyclohexane-1,2-diamine, 1,4-dioxane, 70.0 mM, 100.0 °C, 2.0 h",67.3%
CCOC(=O)C[C@@H]1NC(=O)C(n2cc(CCN3CC(F)C3)cc(CC)c2=O)c2cc(ccc2F)Oc2cccc(C)c2-c2cc(C)c(F)c1c2 (stereo in doubt),"ring closure, isolated yield","from CCOC(=O)C[C@H](NC(=O)C(c1cc(Br)ccc1F)n1cc(CCN2CC(F)C2)cc(CC)c1=O)c1cc(-c2c(C)cccc2O)cc(C)c1F, ether bond, CuI/(1R,2R)-N,N'-dimethylcyclohexane-1,2-diamine/K2CO3, dioxane, 40.0 mM, 100.0 °C, 16.0 h",46.5%
CCOC(=O)C[C@@H]1NC(=O)C(n2cc(CCN3CC(F)C3)cc(C)c2=O)c2cc(ccc2F)Oc2cccc(C)c2-c2cc(C)c(F)c1c2 (stereo partly drawn),"ring closure, isolated yield","from CCOC(=O)C[C@H](NC(=O)C(c1cc(Br)ccc1F)n1cc(CCN2CC(F)C2)cc(C)c1=O)c1cc(-c2c(C)cccc2O)cc(C)c1F, ether bond, CuI/K2CO3/(1R,2R)-N1,N2-dimethylcyclohexane-1,2-diamine, 1,4-dioxane, 20.0 mM, 100.0 °C, 16.0 h",70.9%
CCOC(=O)C[C@@H]1NC(=O)C(n2cc(CCN3CC(F)C3)c(C(F)(F)F)cc2=O)c2cc(ccc2F)Oc2cccc(Cl)c2-c2cc(C)c(F)c1c2 (stereo in doubt),"ring closure, isolated yield","from CCOC(=O)C[C@H](NC(=O)C(c1cc(Br)ccc1F)n1cc(CCN2CC(F)C2)c(C(F)(F)F)cc1=O)c1cc(-c2c(O)cccc2Cl)cc(C)c1F, ether bond, CuI/(1R,2R)-N1,N2-dimethylcyclohexane-1,2-diamine, 1,4-dioxane, 70.0 mM, 100.0 °C, 16.0 h",49.7%
CCOC(=O)C[C@@H]1NC(=O)C(n2cc3ccccc3cc2=O)c2cc(ccc2F)Oc2cccc(C)c2-c2cc(C)c(F)c1c2 (stereo partly drawn),"ring closure, isolated yield","from CCOC(=O)C[C@H](NC(=O)C(c1cc(Br)ccc1F)n1cc2ccccc2cc1=O)c1cc(-c2c(C)cccc2O)cc(C)c1F, ether bond, CuI/(1R,2R)-N,N'-dimethylcyclohexane-1,2-diamine/K2CO3, dioxane, 58.0 mM, 100.0 °C, 2.0 h",33.9%
CCOC(=O)C[C@@H]1NC(=O)C(n2cc(CCN3CC(F)C3)c(C(F)(F)F)cc2=O)c2cc(ccc2F)Oc2nn(CC3CC3)cc2-c2cc(C)c(F)c1c2 (stereo partly drawn),"ring closure, isolated yield","from CCOC(=O)C[C@H](N)c1cc(-c2cn(CC3CC3)nc2Oc2ccc(F)c(C(C(=O)O)n3cc(CCN4CC(F)C4)c(C(F)(F)F)cc3=O)c2)cc(C)c1F, amide bond, EDCI/HOBt/DIEA, MeCN, 45.0 mM, 60.0 °C, 2.0 h",14.6%
CCOC(=O)C[C@@H]1NC(=O)C(n2cc(CCN3CC(F)C3)c(C(F)(F)F)cc2=O)c2cccc(c2)Oc2cccc(C(F)(F)F)c2-c2cc1c(F)c(C(F)(F)F)c2 (stereo partly drawn),"ring closure, isolated yield","from CCOC(=O)C[C@H](NC(=O)C(c1cccc(Br)c1)n1cc(CCN2CC(F)C2)c(C(F)(F)F)cc1=O)c1cc(-c2c(O)cccc2C(F)(F)F)cc(C(F)(F)F)c1F, ether bond, CuI/N1,N2-dimethylcyclohexane-1,2-diamine/K2CO3, dioxane, 14.7 mM, 100.0 °C, 16.0 h",46.7%
"ethyl 2-((5S,8S)-1^4,4^4-difluoro-5-(5-(2-(3-fluoroazetidin-1-yl)ethyl)-2-oxo-4-(trifluoromethyl)pyridin-1(2H)-yl)-2^6-methyl-6-oxo-3-oxa-7-aza-1,4(1,3),2(1,2)-tribenzenacyclooctaphane-8-yl)acetate","ring closure, isolated yield","ether bond, CuI/K2CO3/(1R,2R)-N1,N2-dimethylcyclohexane-1,2-diamine, 1,4-dioxane, 52.0 mM, 100.0 °C",74.2%
CCOC(=O)C[C@@H]1NC(=O)C(n2cc(CCN3CC(F)C3)c(C(F)(F)F)cc2=O)c2cc(ccc2F)Oc2cc(C3COC3)cc(C)c2-c2cc(C)c(F)c1c2 (stereo partly drawn),"ring closure, isolated yield","from CCOC(=O)C[C@H](NC(=O)C(c1cc(Br)ccc1F)n1cc(CCN2CC(F)C2)c(C(F)(F)F)cc1=O)c1cc(-c2c(C)cc(C3COC3)cc2O)cc(C)c1F, ether bond, CuI/(1R,2R)-N1,N2-dimethylcyclohexane-1,2-diamine/K2CO3, 1,4-dioxane, 25.0 mM, 100.0 °C, 1.0 h",31.8%
CCOC(=O)C[C@@H]1NC(=O)C(n2cc(CCCN(C)C)c(C(F)(F)F)cc2=O)c2cc(ccc2F)Oc2cccc(C)c2-c2cc(C)c(F)c1c2 (stereo in doubt),"ring closure, isolated yield","from CCOC(=O)C[C@H](NC(=O)C(c1cc(Br)ccc1F)n1cc(CCCN(C)C)c(C(F)(F)F)cc1=O)c1cc(-c2c(C)cccc2O)cc(C)c1F, ether bond, CuI/K2CO3/(1R,2R)-N1,N2-dimethylcyclohexane-1,2-diamine, 1,4-dioxane, 62.0 mM, 100.0 °C, 16.0 h",55.6%
CCOC(=O)C[C@H](NC(=O)C(c1cc(Br)cc(Cl)c1F)n1cc(CCN2CC(F)C2)c(C(F)(F)F)cc1=O)c1cc(-c2c(C)cccc2O)cc(C)c1F (stereo partly drawn),"ring closure, isolated yield","the molecule shown is the open-chain precursor, ether bond, CuI/(1R,2R)-N1,N2-dimethylcyclohexane-1,2-diamine/K2CO3, dioxane, 46.7 mM, 100.0 °C",46.1%
CCOC(=O)C[C@@H]1NC(=O)C(n2cc(CCN3CC(F)C3)c(C(F)(F)F)cc2=O)c2cc(ccc2F)Oc2cc(Cl)cc(C)c2-c2cc(C)c(F)c1c2 (stereo in doubt),"ring closure, isolated yield","from CCOC(=O)C[C@H](NC(=O)C(c1cc(Br)ccc1F)n1cc(CCN2CC(F)C2)c(C(F)(F)F)cc1=O)c1cc(-c2c(C)cc(Cl)cc2O)cc(C)c1F, ether bond, CuI/(1R,2R)-N1,N2-dimethylcyclohexane-1,2-diamine/K2CO3, dioxane, 47.0 mM, 100.0 °C, 16.0 h",52.5%
CCOC(=O)C[C@@H]1NC(=O)C(n2cc(CCN3CC(F)C3)c(C(F)(F)F)cc2=O)c2cc(ccc2F)Oc2cccc(C)c2-c2cc(C)c(F)c1c2 (stereo partly drawn),"ring closure, isolated yield","from CCOC(=O)C[C@H](NC(=O)C(c1cc(Br)ccc1F)n1cc(CCN2CC(F)C2)c(C(F)(F)F)cc1=O)c1cc(-c2c(C)cccc2O)cc(C)c1F, ether bond, CuI/N1,N2-dimethylcyclohexane-1,2-diamine/K2CO3, dioxane, 18.7 mM, 100.0 °C, 16.0 h",72.5%
CCOC(=O)C[C@@H]1NC(=O)C(n2cc(CCN3CC(F)C3)c(C(F)(F)F)cc2=O)c2cc(ccc2F)Oc2ccc(C)c(C)c2-c2cc(C)c(F)c1c2 (stereo in doubt),"ring closure, isolated yield","from CCOC(=O)C[C@H](NC(=O)C(c1cc(Br)ccc1F)n1cc(CCN2CC(F)C2)c(C(F)(F)F)cc1=O)c1cc(-c2c(O)ccc(C)c2C)cc(C)c1F, ether bond, CuI/(1R,2R)-N1,N2-dimethylcyclohexane-1,2-diamine/K2CO3, dioxane, 15.0 mM, 100.0 °C, 16.0 h",64.7%
CCOC(=O)C[C@H](NC(=O)C(c1cc(Cl)cc(Br)c1)n1cc(CCN2CC(F)C2)c(C(F)(F)F)cc1=O)c1cc(-c2c(C)cccc2O)cc(C(F)(F)F)c1F (stereo partly drawn),"ring closure, isolated yield","the molecule shown is the open-chain precursor, ether bond, CuI/(1R,2R)-N1,N2-dimethylcyclohexane-1,2-diamine/K2CO3, dioxane, 19.0 mM, 100.0 °C",56%
CCOC(=O)C[C@H](NC(=O)C(c1cc(Br)ccc1F)n1ccc(C(F)(F)F)c(Cl)c1=O)c1cc(-c2c(C)cccc2O)cc(C)c1F (stereo partly drawn),"ring closure, isolated yield","the molecule shown is the open-chain precursor, ether bond, CuI/K2CO3/(1R,2R)-N1,N2-dimethylcyclohexane-1,2-diamine, 1,4-dioxane, 43.3 mM, 100.0 °C",56.1%
CCOC(=O)C[C@@H]1NC(=O)C(n2cc(CCN3CC(F)C3)c(C(F)(F)F)cc2=O)c2cc(ccc2F)Oc2ccc(F)cc2-c2cc(C)c(F)c1c2 (stereo partly drawn),"ring closure, isolated yield","from CCOC(=O)C[C@H](NC(=O)C(c1cc(Br)ccc1F)n1cc(CCN2CC(F)C2)c(C(F)(F)F)cc1=O)c1cc(-c2cc(F)ccc2O)cc(C)c1F, ether bond, CuI/(1R,2R)-N1,N2-dimethylcyclohexane-1,2-diamine/K2CO3, dioxane, 95.0 mM, 100.0 °C, 3.0 h",54.4%

# Reference: patent publication US20240279214A1, “ALPHA4 BETA7 INEGRIN ANTAGONISTS AND USES THEREOF” (XinThera, Inc., priority 2022, published 2024)
